According to patent US9708314B2, “Heterocyclic amide compound” (NISSAN CHEMICAL INDUSTRIES, LTD., priority 2013, dated 2017):

Legend:
Assay type in all cases: in vivo
[1] = system: Echinochloa crus-galli var. crus-galli; assay: Test Example 3: herbicidal effect by application to foliage (Wagner pot, water depth 0.1-0.5 cm); details: Nineteenth Table; application to foliage; application herbicide amount 320 g/ha
Procedure, shortened: (§1)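 A small sprayer delivered the diluted emulsion uniformly to foliage at the chosen rate in g/ha, 14 days after sowing in Wagner pots held at 25–30 °C. Outcome: 0–5 herbicidal-ratio score read three weeks post-treatment.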

Leptochloa chinensis = assay: as above; details: Nineteenth Table; application to foliage; application herbicide amount 320 g/ha
Procedure, shortened: as §1

Cyperus difformis = assay: as above; details: Nineteenth Table; application to foliage; application herbicide amount 320 g/ha
Procedure, shortened: as §1

Abutilon theophrasti = assay: Test Example 4: herbicidal effect by application to foliage (diluvial soil, plastic box); details: for M (Abutilon theophrasti) herbicidal effect grade: Application herbicide amount 320 g/ha, foliage application; for M: herbicidal effect on Abutilon theophrasti: application to foliage, application herbicide amount 320 g/ha
Procedure, shortened: (§2)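 Greenhouse plants (25° C. to 30° C., 14 d, diluvial soil) receive a foliar spray of water-diluted emulsifiable formulation at defined g/ha. Grading after 3 weeks uses a six-step herbicidal-ratio scale, with 4 covering 70% to <90% and 1 covering 5% to <20%.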

Veronica persica = assay: as above; details: for R (Veronica persica) herbicidal effect grade: Application herbicide amount 320 g/ha, foliage application; for R: herbicidal effect on Veronica persica: application to foliage, application herbicide amount 320 g/ha
Procedure, shortened: as §2

Amaranthus retroflexus = assay: as above; details: for N (Amaranthus retroflexus) herbicidal effect grade: Application herbicide amount 320 g/ha, foliage application; for N: herbicidal effect on Amaranthus retroflexus: application to foliage, application herbicide amount 320 g/ha
Procedure, shortened: as §2

Alopecurus myosuroides = assay: as above; details: for J (Alopecurus myosuroides) herbicidal effect grade: Application herbicide amount 320 g/ha, foliage application; for J: herbicidal effect on Alopecurus myosuroides: application to foliage, application herbicide amount 320 g/ha
Procedure, shortened: as §2

Stellaria media = assay: as above; details: for P (Stellaria media) herbicidal effect grade: Application herbicide amount 320 g/ha, foliage application; for P: herbicidal effect on Stellaria media: application to foliage, application herbicide amount 320 g/ha
Procedure, shortened: as §2

Chenopodium album = assay: as above; details: for O (Chenopodium album) herbicidal effect grade: Application herbicide amount 320 g/ha, foliage application; for O: herbicidal effect on Chenopodium album: application to foliage, application herbicide amount 320 g/ha
Procedure, shortened: as §2

Digitaria ciliaris = assay: as above; details: for F (Digitaria ciliaris) herbicidal effect grade: Application herbicide amount 320 g/ha, foliage application; for F: herbicidal effect on Digitaria ciliaris: application to foliage, application herbicide amount 320 g/ha
Procedure, shortened: as §2

Apera spica-venti. = assay: as above; details: for L (Apera spica-venti.) herbicidal effect grade: Application herbicide amount 320 g/ha, foliage application; for L: herbicidal effect on Apera spica-venti.: application to foliage, application herbicide amount 320 g/ha
Procedure, shortened: as §2

Setaria viridis = assay: as above; details: for G (Setaria viridis) herbicidal effect grade: Application herbicide amount 320 g/ha, foliage application; for G: herbicidal effect on Setaria viridis: application to foliage, application herbicide amount 320 g/ha
Procedure, shortened: as §2

Compound | H (herbicidal effect grade) [1] | D (herbicidal effect grade) (Leptochloa chinensis) | E (herbicidal effect grade) (Cyperus difformis) | M (Abutilon theophrasti) herbicidal effect grade (Abutilon theophrasti) | R (Veronica persica) herbicidal effect grade (Veronica persica) | N (Amaranthus retroflexus) herbicidal effect grade (Amaranthus retroflexus) | J (Alopecurus myosuroides) herbicidal effect grade (Alopecurus myosuroides) | P (Stellaria media) herbicidal effect grade (Stellaria media) | O (Chenopodium album) herbicidal effect grade (Chenopodium album) | F (Digitaria ciliaris) herbicidal effect grade (Digitaria ciliaris) | L (Apera spica-venti.) herbicidal effect grade (Apera spica-venti.) | G (Setaria viridis) herbicidal effect grade (Setaria viridis) | M: herbicidal effect on Abutilon theophrasti (Abutilon theophrasti) | R: herbicidal effect on Veronica persica (Veronica persica) | N: herbicidal effect on Amaranthus retroflexus (Amaranthus retroflexus) | J: herbicidal effect on Alopecurus myosuroides (Alopecurus myosuroides) | P: herbicidal effect on Stellaria media (Stellaria media) | O: herbicidal effect on Chenopodium album (Chenopodium album) | F: herbicidal effect on Digitaria ciliaris (Digitaria ciliaris) | L: herbicidal effect on Apera spica-venti. (Apera spica-venti.) | further results
Cc1nnc(NC(=O)c2ccc(C(F)(F)F)n3c(N(C)CCC#N)nnc23)o1 [1-153] | 5 (Herbicidal ratio of 90% or more (almost completely withered)) | 5 (Herbicidal ratio of 90% or more (almost completely withered)) | 3 (Herbicidal ratio of 40% or more and less than 70%) | 3 (Herbicidal ratio of 40% or more and less than 70%) | 4 (Herbicidal ratio of 70% or more and less than 90%) | 4 (Herbicidal ratio of 70% or more and less than 90%) | 1 (Herbicidal ratio of 5% or more and less than 20%) | 5 (Herbicidal ratio of 90% or more (almost completely withered)) | 5 (Herbicidal ratio of 90% or more (almost completely withered)) | 4 (Herbicidal ratio of 70% or more and less than 90%) | 2 (Herbicidal ratio of 20% or more and less than 40%) | 4 (Herbicidal ratio of 70% or more and less than 90%) | – | – | – | – | – | – | – | – | –
Cc1nnc(NC(=O)c2ccc(C(F)(F)F)n3c(SCC4CCCO4)nnc23)o1 (stereo not drawn) [1-116] | 4 (Herbicidal ratio of 70% or more and less than 90%) | 4 (Herbicidal ratio of 70% or more and less than 90%) | 0 (Herbicidal ratio of 5% or less (almost no effect)) | 4 (Herbicidal ratio of 70% or more and less than 90%) | 4 (Herbicidal ratio of 70% or more and less than 90%) | 4 (Herbicidal ratio of 70% or more and less than 90%) | 1 (Herbicidal ratio of 5% or more and less than 20%) | 5 (Herbicidal ratio of 90% or more (almost completely withered)) | 5 (Herbicidal ratio of 90% or more (almost completely withered)) | 5 (Herbicidal ratio of 90% or more (almost completely withered)) | 1 (Herbicidal ratio of 5% or more and less than 20%) | 4 (Herbicidal ratio of 70% or more and less than 90%) | – | – | – | – | – | – | – | – | –
Cn1nnnc1NC(=O)c1ccc(C(F)(F)F)n2c(-c3ccccc3)nnc12 [2-007] | 5 (Herbicidal ratio of 90% or more (almost completely withered)) | 5 (Herbicidal ratio of 90% or more (almost completely withered)) | 5 (Herbicidal ratio of 90% or more (almost completely withered)) | – | – | – | – | – | – | – | – | – | 5 (Herbicidal ratio of 90% or more (almost completely withered)) | 5 (Herbicidal ratio of 90% or more (almost completely withered)) | 5 (Herbicidal ratio of 90% or more (almost completely withered)) | 2 (Herbicidal ratio of 20% or more and less than 40%) | 5 (Herbicidal ratio of 90% or more (almost completely withered)) | 5 (Herbicidal ratio of 90% or more (almost completely withered)) | 5 (Herbicidal ratio of 90% or more (almost completely withered)) | 4 (Herbicidal ratio of 70% or more and less than 90%) | G: herbicidal effect on Setaria viridis (Setaria viridis): 4 (Herbicidal ratio of 70% or more and less than 90%)
CC(=O)CSc1nnc2c(C(=O)Nc3nnc(C)o3)ccc(C(F)(F)F)n12 [1-125] | 5 (Herbicidal ratio of 90% or more (almost completely withered)) | 4 (Herbicidal ratio of 70% or more and less than 90%) | 3 (Herbicidal ratio of 40% or more and less than 70%) | 3 (Herbicidal ratio of 40% or more and less than 70%) | 0 (Herbicidal ratio of 5% or less (almost no effect)) | 3 (Herbicidal ratio of 40% or more and less than 70%) | 0 (Herbicidal ratio of 5% or less (almost no effect)) | 4 (Herbicidal ratio of 70% or more and less than 90%) | 5 (Herbicidal ratio of 90% or more (almost completely withered)) | 4 (Herbicidal ratio of 70% or more and less than 90%) | 0 (Herbicidal ratio of 5% or less (almost no effect)) | 1 (Herbicidal ratio of 5% or more and less than 20%) | – | – | – | – | – | – | – | – | –
Cn1nnnc1NC(=O)c1ccc(C(F)(F)F)n2c(Br)nnc12 [2-009] | 5 (Herbicidal ratio of 90% or more (almost completely withered)) | 4 (Herbicidal ratio of 70% or more and less than 90%) | 3 (Herbicidal ratio of 40% or more and less than 70%) | – | – | – | – | – | – | – | – | – | 5 (Herbicidal ratio of 90% or more (almost completely withered)) | 4 (Herbicidal ratio of 70% or more and less than 90%) | 5 (Herbicidal ratio of 90% or more (almost completely withered)) | 1 (Herbicidal ratio of 5% or more and less than 20%) | 5 (Herbicidal ratio of 90% or more (almost completely withered)) | 5 (Herbicidal ratio of 90% or more (almost completely withered)) | 4 (Herbicidal ratio of 70% or more and less than 90%) | 1 (Herbicidal ratio of 5% or more and less than 20%) | G: herbicidal effect on Setaria viridis (Setaria viridis): 3 (Herbicidal ratio of 40% or more and less than 70%)
Cc1nnc(NC(=O)c2ccc(C(F)(F)F)n3c(SCC4CC4)nnc23)o1 [1-115] | 5 (Herbicidal ratio of 90% or more (almost completely withered)) | 4 (Herbicidal ratio of 70% or more and less than 90%) | 4 (Herbicidal ratio of 70% or more and less than 90%) | 3 (Herbicidal ratio of 40% or more and less than 70%) | 4 (Herbicidal ratio of 70% or more and less than 90%) | 4 (Herbicidal ratio of 70% or more and less than 90%) | 2 (Herbicidal ratio of 20% or more and less than 40%) | 4 (Herbicidal ratio of 70% or more and less than 90%) | 5 (Herbicidal ratio of 90% or more (almost completely withered)) | 5 (Herbicidal ratio of 90% or more (almost completely withered)) | 2 (Herbicidal ratio of 20% or more and less than 40%) | 5 (Herbicidal ratio of 90% or more (almost completely withered)) | – | – | – | – | – | – | – | – | –
COCCOCc1nnc2c(C(=O)Nc3nnnn3C)ccc(C(F)(F)F)n12 [2-014] | 5 (Herbicidal ratio of 90% or more (almost completely withered)) | 5 (Herbicidal ratio of 90% or more (almost completely withered)) | 5 (Herbicidal ratio of 90% or more (almost completely withered)) | – | – | – | – | – | – | – | – | – | 5 (Herbicidal ratio of 90% or more (almost completely withered)) | 5 (Herbicidal ratio of 90% or more (almost completely withered)) | 5 (Herbicidal ratio of 90% or more (almost completely withered)) | 4 (Herbicidal ratio of 70% or more and less than 90%) | 5 (Herbicidal ratio of 90% or more (almost completely withered)) | 5 (Herbicidal ratio of 90% or more (almost completely withered)) | 5 (Herbicidal ratio of 90% or more (almost completely withered)) | 4 (Herbicidal ratio of 70% or more and less than 90%) | G: herbicidal effect on Setaria viridis (Setaria viridis): 5 (Herbicidal ratio of 90% or more (almost completely withered))
